# In US5728580A, “Methods and culture media for inducing single cell suspension in insect cell lines” (Cornell Research Foundation, Inc., priority 1996, dated 1998):
# How the values were obtained:
# TN5B1-4 cells [1] = assay: Inducing single-cell formation of clumped TN5B1-4 cells in suspension culture; format: cell-based, Trichoplusia ni; settings: for Inducing single-cell formation / dispersing clumped cells (in words): clumped suspension culture; for Inducing single-cell formation / dispersing clumped cells (in words) / Concentration adequate to maintain single-cell suspension: serum-free medium
# [2] = test system: AcMNPV binding to TN5B1-4 cells; assay: Binding of [3H]thymidine-labeled AcMNPV budded virus to TN5B1-4 cells; format: cell-based; settings: for Virus Binding: 30 min; for Binding, A. Binding in Presence of Polyanions: 5 × 10^6 cells/ml for 30 min, control is binding in absence of polyanion; for Binding, C. Pretreatment of Cells: cells pretreated 3 h, washed once, control is untreated cells; for Binding, C. Pretreatment of Cells / Binding, B. Pretreatment of Virus: binding 1 h without polymer; for Binding, B. Pretreatment of Virus: virus pretreated 2 h, pelleted, control is untreated virus
# [3] = test system: AcMNPV infection of TN5B1-4 cells; settings: cited from earlier work
# TN5B1-4 cells [4] = settings: for Toxic above this level: tn5b1-4 cells
# Description: Three different molecular weights of dextran sulfate, derived from dextran of MW 5000, 20000, 500000, were evaluated.
# Compounds were evaluated for their ability to induce single cell suspension in 50-ml spinner flasks at 160 rpm. Control cells were passaged at least 10 times in suspension before they were used in any experiments. […] A qualitative score for reduction in clumping relative to control cells was assigned to cells grown in the presence of test compound at the end of the third passage. The protocol for enzyme treatment was the same, but the seeding density was 1×10^6 cells/ml and cells were evaluated after 24 h.
# TN5B1-4 cells [5] = assay: Growth kinetics of TN5B1-4 cells in spinner flasks; format: cell-based, Trichoplusia ni; design: dose or concentration left out as unconfirmed
# Description: TN5B1-4 suspension cells were grown in 50-ml spinner flasks (Bellco Glass, Vineland, N.J.) with a working volume of 40 ml at 160 rpm. SF21 cells were grown in similar vessels at 130 rpm in Ex-Cell 400 medium. The screw caps of the flasks were replaced with silicone foam closures for better oxygen transfer. Cells were passaged every 3 days.
# The growth of TN5B1-4 DS 5000 cells in suspension was scaled-up to a 1.25 L Celligen reactor agitated with a marine impeller at 90 rpm. The cells were subcultured three times in this reactor with no clump formation. The doubling time was 20 h and a maximum density of 6-7×10^6 cells/ml was reached.
# [6] = test system: AcMNPV binding to SF21 cells; assay: Binding of AcMNPV virus to SF21 cells; format: cell-based
# Description: (§1) The inhibition of binding was further explored by considering the effect of increasing polyanion concentration on the binding of virus to TN5B1-4 and SF21. Less than 20 μg/ml of both dextran sulfate and heparin were required to attain maximum inhibition. […] Dextran sulfate reduced the binding of the virus to TN5B1-4 but not to SF21. […] The cell growth post-infection was used as a measure of virus infection since infection is known to inhibit cell division. Hereafter, synchronous infection is used to refer to infection with no measurable cell division post-infection.
# [7] = test system: AcMNPV infection of TN5B1-4 cells; assay: Viral infection inhibition in TN5B1-4 (cell growth post-infection); format: cell-based; settings: at concentrations required to induce and maintain single-cell suspension; MOI 0.1 to 20
# Description: as §1
# The cells were infected at MOI of 0.1, 0.5, 1, 5, 10, and 20 to determine the lowest MOI for synchoronous infection.
# [8] = test system: AcMNPV infection of SF21 cells; assay: Viral infection inhibition in SF21; format: cell-based
# Description: as §1
# [9] = 100 μg/ml, control = binding of virus to cells with no additive
# [10] = 1000 μg/ml, control = binding of virus to cells with no additive
# [11] = 25 μg/ml, control = binding of virus to cells with no additive
substance,measurement,setting,value
DEAE-dextran [DEAE dextran],Inducing single-cell formation / dispersing clumped cells (in words),TN5B1-4 cells [1],ineffective
same,Virus Binding,"[2]; 5 μg/ml, control = binding of virus to cells with no additive",74 ± 9 % of Control
Heparin,Fold higher concentration required to induce single-cell suspension relative to dextran sulfate,TN5B1-4 cells [1],20 fold
same,Concentration required to attain maximum inhibition of virus binding (threshold value),[2],Less than 20 μg/ml
same,Virus Binding,[2]; [9],63 ± 3 % of Control
same,Inhibition of viral infection (as known),[3],known to seriously inhibit infection
Pluronic F68,Inducing single-cell formation / dispersing clumped cells (in words),TN5B1-4 cells [1],ineffective
same,Virus Binding,[2]; [10],98 ± 2 % of Control
chondroitin disaccharides [Chondroitin sulfate disaccharides],Inducing single-cell formation / dispersing clumped cells (in words),TN5B1-4 cells [1],did not disperse clumped cells
same,Virus Binding,[2]; [9],99 ± 6 % of Control
chondroitin sulfate,Virus Binding,[2]; [9],94 ± 3 % of Control
dermatan sulfate,Virus Binding,[2]; [9],65 ± 7 % of Control
dextran,Inducing single-cell formation / dispersing clumped cells (in words),TN5B1-4 cells [1],ineffective
same,Virus Binding,[2]; [9],97 ± 2 % of Control
same,Virus Binding,"[2]; 100 μg/ml, polymer of MW 580 kd, control = no additive",99 ± 3 % of Control
dextran sulfate [dextran sulfate 500000],Toxic above this level,TN5B1-4 cells [4],above 5 μg/ml
dextran sulfate [dextran sulfate II],Virus Binding,[2]; [11],82 ± 4 % of Control
dextran sulfate [dextran sulfate I],Inducing single-cell formation in serum-containing media,"TN5B1-4 cells [1]; serum-containing media, up to 300 μg/ml",complete elimination of clumping was not possible
same,Concentration adequate to maintain single-cell suspension,TN5B1-4 cells [1],25 µg/mL
same,Concentration required to attain maximum inhibition of virus binding (threshold value),[2],Less than 20 μg/ml
same,"Binding, A. Binding in Presence of Polyanions",[2]; 25 μg/ml,42 ± 2 % of control
same,Virus Binding,[2]; [11],42 ± 2 % of Control
same,"Binding, C. Pretreatment of Cells",[2]; 25 μg/ml,93 ± 9 % of control
same,"Binding, B. Pretreatment of Virus",[2]; 25 μg/ml,103 ± 3 % of control
same,Reduction of the attachment rate constant,[2]; at concentration required to maintain single-cell suspension,six-fold
same,Toxic at concentrations greater than,TN5B1-4 cells [4],greater than 0.1%
same,Effect on doubling time and maximum cell density,TN5B1-4 cells [5],does not affect
same,Effect on binding of virus to SF21,[6],did not affect binding
same,Inhibition of viral infection,[7],not severely inhibited
same,Inhibition of viral infection in SF21,[8],inhibited infection
fructose 6-phosphate,Inducing single-cell formation / dispersing clumped cells (in words),TN5B1-4 cells [1],ineffective
fucoidan sulfate,Virus Binding,[2]; [11],53 ± 1 % of Control
same,Virus Binding,[2]; [9],53 ± 1 % of Control
glucose 6-phosphate,Inducing single-cell formation / dispersing clumped cells (in words),TN5B1-4 cells [1],ineffective
heparin disaccharides,Virus Binding,[2]; [9],103 ± 2 % of Control
hyaluronate,Inducing single-cell formation / dispersing clumped cells (in words),TN5B1-4 cells [1],did not induce single-cell formation
same,Virus Binding,[2]; [9],99 ± 1 % of Control
pentosan sulfate,Concentration adequate to maintain single-cell suspension,TN5B1-4 cells [1],100 µg/mL
same,Virus Binding,[2]; [11],53 ± 3 % of Control
same,"Binding, A. Binding in Presence of Polyanions",[2]; 100 μg/ml,55 ± 9 % of control
same,Virus Binding,[2]; [9],55 ± 9 % of Control
same,"Binding, C. Pretreatment of Cells",[2]; 100 μg/ml,96 ± 7 % of control
same,"Binding, B. Pretreatment of Virus",[2]; 100 μg/ml,99 ± 4 % of control
same,Inhibition of viral infection,[7],not severely inhibited
polyphosphate,Inducing single-cell formation / dispersing clumped cells (in words),TN5B1-4 cells [1],did not induce single-cell formation
polyvinyl sulfate,Inducing single-cell formation / dispersing clumped cells (in words),TN5B1-4 cells [1],as effective as dextran sulfate
same,Concentration adequate to maintain single-cell suspension,TN5B1-4 cells [1],25 µg/mL
same,Virus Binding,"[2]; 10 μg/ml, control = binding of virus to cells with no additive",52 ± 4 % of Control
same,"Binding, A. Binding in Presence of Polyanions",[2]; 25 μg/ml,52 ± 4 % of control
same,Virus Binding,[2]; [11],52 ± 1 % of Control
same,"Binding, C. Pretreatment of Cells",[2]; 25 μg/ml,95 ± 6 % of control
same,"Binding, B. Pretreatment of Virus",[2]; 25 μg/ml,96 ± 5 % of control
same,Inhibition of viral infection,[7],inhibited viral infection even at high MOI
protamine sulfate,Inducing single-cell formation / dispersing clumped cells (in words),TN5B1-4 cells [1],ineffective
same,Virus Binding,"[2]; 50 μg/ml, control = binding of virus to cells with no additive",virus ppt.
sodium carboxymethylcellulose [sodium CMC],Inducing single-cell formation / dispersing clumped cells (in words),TN5B1-4 cells [1],did not induce single-cell formation
same,Virus Binding,[2]; [10],107 ± 1 % of Control
sodium polyphosphoric acid,Inducing single-cell formation / dispersing clumped cells (in words),TN5B1-4 cells [1],did not induce single-cell formation
same,Virus Binding,[2]; [9],98 ± 1 % of Control
κ-carrageenan,Virus Binding,[2]; [9],73 ± 6 % of Control
λ-carrageenan,Virus Binding,[2]; [11],68 ± 3 % of Control
same,Toxic above this level,TN5B1-4 cells [4],> 25 µg/mL
